Results: the kinase profiling compilation of Christmann-Franck et al. (2016)

Key:
Experiment in all cases: KINOMEscan competition binding
Conditions in all cases: compound 0.5 µM
TNNI3K (human) = TNNI3K (human) (UniProt Q59H18)
PIK3CG (human) = PIK3CG (human) (UniProt P48736)
MERTK (human) = MERTK (human) (UniProt Q12866)
RPS6KA3 KD1 (human) = RPS6KA3 KD1 (human) (UniProt P51812)
MAPKAPK5 (human) = MAPKAPK5 (human) (UniProt Q8IW41)
MAP4K1 (human) = MAP4K1 (human) (UniProt Q92918)
CDK18 (human) = CDK18 (human) (UniProt Q07002)
Sequence of CDK18 (human) (Q07002 whole entry, looked up): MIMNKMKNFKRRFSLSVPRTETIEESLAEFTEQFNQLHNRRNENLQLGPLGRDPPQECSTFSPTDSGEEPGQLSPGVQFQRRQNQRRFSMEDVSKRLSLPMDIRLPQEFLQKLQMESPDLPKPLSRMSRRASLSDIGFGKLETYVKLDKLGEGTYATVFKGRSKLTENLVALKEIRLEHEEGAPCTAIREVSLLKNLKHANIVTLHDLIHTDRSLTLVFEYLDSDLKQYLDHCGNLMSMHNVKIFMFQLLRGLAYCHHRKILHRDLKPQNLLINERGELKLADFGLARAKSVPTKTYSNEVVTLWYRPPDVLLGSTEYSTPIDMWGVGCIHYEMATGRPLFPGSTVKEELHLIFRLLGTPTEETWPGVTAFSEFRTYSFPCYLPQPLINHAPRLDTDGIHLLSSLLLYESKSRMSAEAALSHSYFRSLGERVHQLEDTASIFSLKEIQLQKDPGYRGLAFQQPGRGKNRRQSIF

RIPK4 (human) = RIPK4 (human) (UniProt P57078)
MAP4K3 (human) = MAP4K3 (human) (UniProt Q8IVH8)
Sequence of MAP4K3 (human) (Q8IVH8 whole entry, looked up): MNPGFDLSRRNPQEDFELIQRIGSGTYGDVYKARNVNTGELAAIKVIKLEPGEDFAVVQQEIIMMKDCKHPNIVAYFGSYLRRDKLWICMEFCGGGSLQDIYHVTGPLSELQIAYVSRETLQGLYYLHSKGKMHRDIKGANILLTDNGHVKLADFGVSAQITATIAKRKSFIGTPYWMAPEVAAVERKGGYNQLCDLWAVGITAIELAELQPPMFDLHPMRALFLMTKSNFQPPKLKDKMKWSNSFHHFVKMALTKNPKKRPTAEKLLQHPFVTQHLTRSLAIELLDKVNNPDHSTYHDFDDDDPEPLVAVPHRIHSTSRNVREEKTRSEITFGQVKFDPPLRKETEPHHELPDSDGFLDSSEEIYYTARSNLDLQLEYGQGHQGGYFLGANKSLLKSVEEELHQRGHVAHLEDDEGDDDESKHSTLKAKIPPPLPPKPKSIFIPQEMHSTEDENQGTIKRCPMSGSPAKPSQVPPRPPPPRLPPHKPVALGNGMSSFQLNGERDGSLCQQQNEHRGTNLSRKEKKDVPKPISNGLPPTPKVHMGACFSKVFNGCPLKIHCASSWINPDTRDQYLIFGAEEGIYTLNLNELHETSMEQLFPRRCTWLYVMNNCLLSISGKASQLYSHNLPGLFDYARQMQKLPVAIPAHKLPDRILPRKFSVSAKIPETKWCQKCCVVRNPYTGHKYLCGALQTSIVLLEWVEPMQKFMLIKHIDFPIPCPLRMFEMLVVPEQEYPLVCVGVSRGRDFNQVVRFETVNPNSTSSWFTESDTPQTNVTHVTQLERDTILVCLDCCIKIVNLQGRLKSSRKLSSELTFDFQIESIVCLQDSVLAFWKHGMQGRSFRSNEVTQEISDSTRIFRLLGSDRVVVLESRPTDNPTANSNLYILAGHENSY

ADCK3 (human) = ADCK3 (human) (UniProt Q8NI60)
MAP3K5 (human) = MAP3K5 (human) (UniProt Q99683)
BTK (human) = BTK (human) (UniProt Q06187)
STK32C (human) = STK32C (human) (UniProt Q86UX6)
Sequence of STK32C (human) (Q86UX6 whole entry, looked up): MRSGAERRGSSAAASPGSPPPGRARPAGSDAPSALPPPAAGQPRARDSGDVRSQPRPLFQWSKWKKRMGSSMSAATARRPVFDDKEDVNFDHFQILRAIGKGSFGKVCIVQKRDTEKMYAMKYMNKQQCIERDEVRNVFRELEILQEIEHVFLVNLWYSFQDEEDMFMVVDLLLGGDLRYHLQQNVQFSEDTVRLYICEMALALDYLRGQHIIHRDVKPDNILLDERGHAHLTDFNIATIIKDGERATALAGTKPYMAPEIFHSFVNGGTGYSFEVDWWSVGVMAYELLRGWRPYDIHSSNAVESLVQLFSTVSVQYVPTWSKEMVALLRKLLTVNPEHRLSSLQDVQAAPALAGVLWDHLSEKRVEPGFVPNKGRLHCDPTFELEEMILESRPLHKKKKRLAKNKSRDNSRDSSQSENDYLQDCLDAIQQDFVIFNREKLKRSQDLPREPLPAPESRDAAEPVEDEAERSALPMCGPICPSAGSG

SRPK1 (human) = SRPK1 (human) (UniProt Q96SB4)
Sequence of SRPK1 (human) (Q96SB4 whole entry, looked up): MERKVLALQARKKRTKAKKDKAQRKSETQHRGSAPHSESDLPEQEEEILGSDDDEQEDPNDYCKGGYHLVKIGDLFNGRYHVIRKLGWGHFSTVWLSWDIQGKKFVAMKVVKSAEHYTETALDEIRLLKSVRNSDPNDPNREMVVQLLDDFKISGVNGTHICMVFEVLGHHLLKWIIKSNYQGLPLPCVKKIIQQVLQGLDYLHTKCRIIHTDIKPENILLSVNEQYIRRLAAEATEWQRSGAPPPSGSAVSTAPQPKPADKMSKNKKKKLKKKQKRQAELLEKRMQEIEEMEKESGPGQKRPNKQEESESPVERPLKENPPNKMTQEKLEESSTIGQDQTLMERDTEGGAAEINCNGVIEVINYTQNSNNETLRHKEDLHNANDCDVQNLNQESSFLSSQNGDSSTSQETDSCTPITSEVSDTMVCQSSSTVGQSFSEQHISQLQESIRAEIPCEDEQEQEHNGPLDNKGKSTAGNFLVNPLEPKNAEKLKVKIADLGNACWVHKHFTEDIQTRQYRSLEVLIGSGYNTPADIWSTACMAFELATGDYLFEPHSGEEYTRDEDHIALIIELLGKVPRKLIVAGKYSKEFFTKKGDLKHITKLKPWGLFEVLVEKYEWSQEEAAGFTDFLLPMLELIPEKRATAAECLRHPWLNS

NUAK2 (human) = NUAK2 (human) (UniProt Q9H093)
Sequence of NUAK2 (human) (Q9H093 whole entry, looked up): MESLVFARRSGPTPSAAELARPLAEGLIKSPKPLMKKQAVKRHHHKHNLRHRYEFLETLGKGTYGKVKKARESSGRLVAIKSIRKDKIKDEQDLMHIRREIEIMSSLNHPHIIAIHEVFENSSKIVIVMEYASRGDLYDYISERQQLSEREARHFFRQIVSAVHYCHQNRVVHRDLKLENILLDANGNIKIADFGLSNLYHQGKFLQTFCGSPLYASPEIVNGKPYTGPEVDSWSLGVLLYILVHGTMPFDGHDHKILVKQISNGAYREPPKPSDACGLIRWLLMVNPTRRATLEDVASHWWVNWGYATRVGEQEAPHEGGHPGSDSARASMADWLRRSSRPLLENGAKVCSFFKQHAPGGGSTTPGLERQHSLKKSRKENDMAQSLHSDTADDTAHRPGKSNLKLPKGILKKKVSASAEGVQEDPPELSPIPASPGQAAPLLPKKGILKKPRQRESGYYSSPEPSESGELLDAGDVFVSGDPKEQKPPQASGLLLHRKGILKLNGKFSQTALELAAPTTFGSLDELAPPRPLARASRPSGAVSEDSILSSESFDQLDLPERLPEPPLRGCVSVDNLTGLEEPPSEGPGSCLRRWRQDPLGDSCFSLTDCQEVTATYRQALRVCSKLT

STK3 (human) = STK3 (human) (UniProt Q13188)
ROCK2 (human) = ROCK2 (human) (UniProt O75116)
TTK (human) = TTK (human) (UniProt P33981)
SYK (human) = SYK (human) (UniProt P43405)
PAK2 (human) = PAK2 (human) (UniProt Q13177)
EPHA4 (human) = EPHA4 (human) (UniProt P54764)
CDK7 (human) = CDK7 (human) (UniProt P50613)
[1] = target: TYK2 JH1 catalytic (human) (UniProt P29597)
PRKCD (human) = PRKCD (human) (UniProt Q05655)
Sequence of PRKCD (human) (Q05655 whole entry, looked up): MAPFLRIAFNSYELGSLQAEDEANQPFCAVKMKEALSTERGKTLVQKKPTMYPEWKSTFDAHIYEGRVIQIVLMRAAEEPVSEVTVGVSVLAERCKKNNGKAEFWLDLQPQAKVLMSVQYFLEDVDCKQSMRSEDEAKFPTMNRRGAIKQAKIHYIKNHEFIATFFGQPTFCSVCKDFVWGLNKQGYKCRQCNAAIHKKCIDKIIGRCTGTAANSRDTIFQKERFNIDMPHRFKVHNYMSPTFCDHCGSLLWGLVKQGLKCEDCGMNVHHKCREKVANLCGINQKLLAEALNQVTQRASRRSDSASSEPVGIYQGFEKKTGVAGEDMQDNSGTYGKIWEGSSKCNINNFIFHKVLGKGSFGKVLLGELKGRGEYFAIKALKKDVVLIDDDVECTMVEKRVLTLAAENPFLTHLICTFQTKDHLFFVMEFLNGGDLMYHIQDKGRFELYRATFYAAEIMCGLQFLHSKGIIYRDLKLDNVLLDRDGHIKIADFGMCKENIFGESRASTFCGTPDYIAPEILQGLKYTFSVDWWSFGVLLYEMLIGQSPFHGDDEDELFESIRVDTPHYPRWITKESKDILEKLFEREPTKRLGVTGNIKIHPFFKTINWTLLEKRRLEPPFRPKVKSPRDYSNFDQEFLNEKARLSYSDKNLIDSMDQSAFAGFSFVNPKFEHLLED

[2] = system: ABL1 (human), P00519 [E255K]
CSNK1G3 (human) = CSNK1G3 (human) (UniProt Q9Y6M4)
RIOK2 (human) = RIOK2 (human) (UniProt Q9BVS4)
PLK4 (human) = PLK4 (human) (UniProt O00444)
CAMK1G (human) = CAMK1G (human) (UniProt Q96NX5)
STK25 (human) = STK25 (human) (UniProt O00506)
CDK9 (human) = CDK9 (human) (UniProt P50750)
Sequence of CDK9 (human) (P50750 whole entry, looked up): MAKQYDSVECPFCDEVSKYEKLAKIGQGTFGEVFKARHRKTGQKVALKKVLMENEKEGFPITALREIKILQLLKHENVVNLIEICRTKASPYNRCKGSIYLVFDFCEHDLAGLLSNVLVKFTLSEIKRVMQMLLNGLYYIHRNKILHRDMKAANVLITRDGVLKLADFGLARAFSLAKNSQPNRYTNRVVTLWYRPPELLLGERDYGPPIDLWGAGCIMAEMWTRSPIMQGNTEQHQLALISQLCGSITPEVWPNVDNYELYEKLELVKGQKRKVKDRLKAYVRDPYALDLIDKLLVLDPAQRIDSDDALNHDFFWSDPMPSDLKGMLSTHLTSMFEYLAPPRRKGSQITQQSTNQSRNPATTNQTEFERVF

CDK8 (human) = CDK8 (human) (UniProt P49336)
MAP2K4 (human) = MAP2K4 (human) (UniProt P45985)
[3] = system: KIT (human), P10721 [V559D]
MYLK (human) = MYLK (human) (UniProt Q15746)
FGFR2 (human) = FGFR2 (human) (UniProt P21802)
CAMK2B (human) = CAMK2B (human) (UniProt Q13554)
MAP2K6 (human) = MAP2K6 (human) (UniProt P52564)
Sequence of MAP2K6 (human) (P52564 whole entry, looked up): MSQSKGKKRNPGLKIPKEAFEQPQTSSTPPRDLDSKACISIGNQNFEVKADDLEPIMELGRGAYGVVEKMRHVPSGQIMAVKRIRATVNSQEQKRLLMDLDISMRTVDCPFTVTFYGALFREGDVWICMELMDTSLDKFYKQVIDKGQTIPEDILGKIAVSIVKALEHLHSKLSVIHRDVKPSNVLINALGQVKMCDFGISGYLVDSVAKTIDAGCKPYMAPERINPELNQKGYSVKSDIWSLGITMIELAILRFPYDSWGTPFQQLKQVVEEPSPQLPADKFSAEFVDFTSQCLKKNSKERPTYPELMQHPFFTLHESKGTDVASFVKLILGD

STK11 (human) = STK11 (human) (UniProt Q15831)
Sequence of STK11 (human) (Q15831 whole entry, looked up): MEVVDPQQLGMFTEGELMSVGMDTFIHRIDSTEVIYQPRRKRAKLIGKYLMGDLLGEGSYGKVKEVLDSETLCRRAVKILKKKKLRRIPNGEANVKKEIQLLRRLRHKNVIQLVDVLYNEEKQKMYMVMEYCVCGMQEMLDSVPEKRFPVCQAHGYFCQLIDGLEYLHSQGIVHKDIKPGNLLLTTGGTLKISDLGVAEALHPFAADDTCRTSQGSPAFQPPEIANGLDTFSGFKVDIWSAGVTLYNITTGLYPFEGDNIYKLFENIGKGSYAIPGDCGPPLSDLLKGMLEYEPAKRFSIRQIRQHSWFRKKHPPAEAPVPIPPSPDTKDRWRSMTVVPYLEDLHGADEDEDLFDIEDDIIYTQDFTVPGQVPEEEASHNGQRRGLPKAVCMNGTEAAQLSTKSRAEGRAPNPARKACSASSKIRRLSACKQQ

[4] = system: KIT (human), P10721 [V559D/T670I]
CSNK1D (human) = CSNK1D (human) (UniProt P48730)
CAMK2G (human) = CAMK2G (human) (UniProt Q13555)

How did the kinase still bound, per cent of control (TNNI3K (human)) turn out when `Cn1c2ccccc2c2c3c(c4c5ccccc5n(CCC#N)c4c21)CNC3=O` was run?
The kinase still bound, per cent of control was 100%.

And the kinase still bound, per cent of control (PIK3CG (human))?
The kinase still bound, per cent of control was 3.1%.

What about the kinase still bound, per cent of control (MERTK (human)) of the same compound?
Its kinase still bound, per cent of control is 89%.

And the kinase still bound, per cent of control (RPS6KA3 KD1 (human))?
Its kinase still bound, per cent of control is 25%.

What about the kinase still bound, per cent of control (MAPKAPK5 (human)) of the same compound?
Its kinase still bound, per cent of control is 100%.

And the kinase still bound, per cent of control (MAP4K1 (human))?
The kinase still bound, per cent of control was 33%.

And the kinase still bound, per cent of control (CDK18 (human))?
Its kinase still bound, per cent of control is 91%.

What about the kinase still bound, per cent of control (RIPK4 (human)) of the same compound?
Its kinase still bound, per cent of control is 5.2%.

What about the kinase still bound, per cent of control (MAP4K3 (human)) of the same compound?
Its kinase still bound, per cent of control is 6%.

What about the kinase still bound, per cent of control (ADCK3 (human)) of the same compound?
The kinase still bound, per cent of control was 100%.

And the kinase still bound, per cent of control (MAP3K5 (human))?
The kinase still bound, per cent of control was 56%.

And the kinase still bound, per cent of control (BTK (human))?
Its kinase still bound, per cent of control is 83%.

What about the kinase still bound, per cent of control (STK32C (human)) of the same compound?
Its kinase still bound, per cent of control is 100%.

And the kinase still bound, per cent of control (SRPK1 (human))?
Its kinase still bound, per cent of control is 5.6%.

What about the kinase still bound, per cent of control (NUAK2 (human)) of the same compound?
The kinase still bound, per cent of control was 4.4%.

What about the kinase still bound, per cent of control (STK3 (human)) of the same compound?
The kinase still bound, per cent of control was 0.8%.

What about the kinase still bound, per cent of control (ROCK2 (human)) of the same compound?
Its kinase still bound, per cent of control is 18%.

And the kinase still bound, per cent of control (TTK (human))?
Its kinase still bound, per cent of control is 23%.

And the kinase still bound, per cent of control (SYK (human))?
The kinase still bound, per cent of control was 2.4%.

And the kinase still bound, per cent of control (PAK2 (human))?
Its kinase still bound, per cent of control is 51%.

What about the kinase still bound, per cent of control (EPHA4 (human)) of the same compound?
Its kinase still bound, per cent of control is 97%.

What about the kinase still bound, per cent of control (CDK7 (human)) of the same compound?
Its kinase still bound, per cent of control is 84%.

And the kinase still bound, per cent of control [1]?
Its kinase still bound, per cent of control is 0.6%.

And the kinase still bound, per cent of control (PRKCD (human))?
The kinase still bound, per cent of control was 43%.

And the kinase still bound, per cent of control [2]?
The kinase still bound, per cent of control was 75%.

And the kinase still bound, per cent of control (CSNK1G3 (human))?
Its kinase still bound, per cent of control is 84%.

And the kinase still bound, per cent of control (RIOK2 (human))?
The kinase still bound, per cent of control was 64%.

And the kinase still bound, per cent of control (PLK4 (human))?
Its kinase still bound, per cent of control is 6.5%.

And the kinase still bound, per cent of control (CAMK1G (human))?
Its kinase still bound, per cent of control is 66%.

And the kinase still bound, per cent of control (STK25 (human))?
Its kinase still bound, per cent of control is 100%.

And the kinase still bound, per cent of control (CDK9 (human))?
The kinase still bound, per cent of control was 100%.

What about the kinase still bound, per cent of control (CDK8 (human)) of the same compound?
The kinase still bound, per cent of control was 85%.

And the kinase still bound, per cent of control (MAP2K4 (human))?
The kinase still bound, per cent of control was 1.2%.

What about the kinase still bound, per cent of control [3] of the same compound?
The kinase still bound, per cent of control was 71%.

And the kinase still bound, per cent of control (MYLK (human))?
Its kinase still bound, per cent of control is 56%.

And the kinase still bound, per cent of control (FGFR2 (human))?
Its kinase still bound, per cent of control is 95%.

And the kinase still bound, per cent of control (CAMK2B (human))?
The kinase still bound, per cent of control was 63%.

And the kinase still bound, per cent of control (MAP2K6 (human))?
The kinase still bound, per cent of control was 15%.

What about the kinase still bound, per cent of control (STK11 (human)) of the same compound?
The kinase still bound, per cent of control was 4.4%.

What about the kinase still bound, per cent of control [4] of the same compound?
Its kinase still bound, per cent of control is 57%.

And the kinase still bound, per cent of control (CSNK1D (human))?
The kinase still bound, per cent of control was 81%.

What about the kinase still bound, per cent of control (CAMK2G (human)) of the same compound?
Its kinase still bound, per cent of control is 41%.
